Each block holds one compound with its values, some of them ahead of it.
Tests used:
[1] = biological target: rat A2aR (rA2aR) (Rattus norvegicus, UniProt P30543); assay: cAMP assay in PC-12 cells (endogenous rat A2aR); conditions: A2bR antagonist pre-incubated 15 min
[2] = system: human monocytes; assay: PMA-stimulated TNF-α production by human monocytes; format: cell-based
[3] = system: murine model of sepsis; set-up: method as in PMID 18937852; conditions: within 4 h of LPS injection ref 26; cited from earlier work
[4] = rapidly degraded in vivo by adenosine deaminase; no reference given; cited from earlier work

Sequence of rat A2aR (rA2aR) (P30543 whole entry): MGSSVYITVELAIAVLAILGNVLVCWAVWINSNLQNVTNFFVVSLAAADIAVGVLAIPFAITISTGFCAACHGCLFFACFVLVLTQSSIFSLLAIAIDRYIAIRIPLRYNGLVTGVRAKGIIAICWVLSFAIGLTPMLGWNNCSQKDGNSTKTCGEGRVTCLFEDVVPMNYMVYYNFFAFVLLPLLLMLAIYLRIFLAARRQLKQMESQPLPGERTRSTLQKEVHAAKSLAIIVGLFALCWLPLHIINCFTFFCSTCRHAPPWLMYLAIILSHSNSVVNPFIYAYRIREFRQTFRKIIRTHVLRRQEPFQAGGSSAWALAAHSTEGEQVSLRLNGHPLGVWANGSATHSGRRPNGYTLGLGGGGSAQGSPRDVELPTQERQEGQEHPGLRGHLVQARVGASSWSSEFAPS

effect on adenosine- or adenosine plus AEA061-induced cAMP production [1]: failed to inhibit
Structure (SMILES): CCCn1c(=O)c2[nH]c(-c3ccc(OCC(=O)Nc4ccc(C#N)cc4)cc3)nc2n(CCC)c1=O [MRS 1754, N-(4-Cyanophenyl)-2-[4-(2,3,6,7-tetrahydro-2,6-dioxo-1,3-dipropyl-1H-purin-8-yl)phenoxy]-acetamide]

Structure (SMILES): CCNC(=O)[C@H]1O[C@@H](n2cnc3c(N)ncnc32)[C@H](O)[C@@H]1O [NECA, 5′-N-Ethylcarboxamidoadenosine]
effect on PMA-stimulated TNF-α production ([2]; human monocytes/macrophages, NECA 1 μM, PMA 5 ng/ml, 12 h): inhibited

Structure (SMILES): COC(=O)N1CCC(CC#Cc2nc(N)c3ncn([C@@H]4O[C@H](C(=O)NC5CC5)[C@@H](O)[C@H]4O)c3n2)CC1 [ATL313]
circulating plasma levels of TNF-α, MIP-1α, MCP-1 [3]: decreases
plasma level of IL-10 [3]: increases

Structure (SMILES): Nc1nc(NCCc2ccc(O)cc2)nc2nc(-c3ccco3)nn12 [ZM 241385, 4-(2-[7-Amino-2-(2-furyl)[1,2,4]triazolo[2,3-a][1,3,5]triazin-5-ylamino]ethyl)phenol]
effect on AEA061-mediated inhibition of PMA-stimulated TNF-α production ([2]; human monocytes, 15 min pretreatment, AEA061 1 μM, PMA 5 ng/ml): blunted
effect on NECA-mediated inhibition of TNF-α production ([2]; human monocytes, 15 min pretreatment, NECA 1 μM, PMA 5 ng/ml): reversed the NECA-mediated inhibition in a dose-dependent manner
PMA-stimulated TNF-α responsiveness in NECA- and AEA061-treated cells ([2]; human monocytes, ZM 241385 at 1 μM): restored

Structure (SMILES): Nc1ncnc2c1ncn2[C@@H]1O[C@H](CO)[C@@H](O)[C@H]1O [adenosine]
half-life in vivo [4]: less than 10 seconds

Source: paper PMC4253011, “Positive allosteric modulation of the adenosine A2a receptor attenuates inflammation” (Journal of Inflammation (London, England), 2014)
